For one series, the system named is Sudan ebolavirus. The series can be described thus: Antiviral activity against SUDV infected in human HeLa cells assessed as reduction in viral cytopathic effect. It is filed as functional, organism-based. In general terms: Damage to the host cells serves as the signal in cytopathic effect assays.
In series [1] the test system is Middle East respiratory syndrome-related coronavirus. The series can be described thus: Antiviral activity against MERS-CoV infected in vervet monkey MA-104 cells assessed as reduction in virus-induced cytopathic effect measured after 15 to 30 mins by neutral red dye based assay. In kind it is functional, organism-based. As to conditions: MA104.
Series [2] deals with Influenza A virus. The series can be described thus: Antiviral activity against Influenza A virus infected in dog MDCK cells assessed as reduction in viral cytopathic effect. It is filed as functional, organism-based.
Series [3] in a line: Cytotoxicity against African green monkey Vero cells infected with DENV-2 assessed as reduction in cell viability by neutral red dye based assay. It is filed as toxicity. The following applies: chlorocebus sabaeus.
A short description of series [4]: Cytotoxicity against vervet monkey MA-104 cells infected with MERS-CoV assessed as reduction in cell viability by neutral red dye based assay. It is filed as toxicity. As to conditions: cercopithecus pygerythrus.
Series [5] can be described thus: Selectivity index, ratio of CC50 for cytotoxicity against vervet monkey MA-104 cells infected with MERS-CoV assessed as reduction in cell viability by neutral red dye based analysis to EC50 for antiviral activity against MERS-CoV infected in vervet monkey MA-104 cells assessed as reduction in virus-induced cytopathic effect by neutral red dye based analysis. In kind it is toxicity. As to conditions: read-out: Ratio CC50/EC50.

The nature of series [6]: Cytotoxicity against African green monkey Vero cells infected with DENV-2 assessed as reduction in cell viability by visual assay. In kind it is toxicity, cell-based. As to conditions: chlorocebus sabaeus.
Series [7] can be described thus: Toxicity in BALB/c mouse infected with A/Ca/04/09 (H1N1) assessed as animal survival at 10 to 300 mg/kg, ip administered twice a day for 5 days. In kind it is organism-based. As to conditions: in vivo, 120 h, dose 10-300 mg/kg, time 5 day.
Series [8] in a line: Selectivity index, ratio of CC50 for cytotoxicity against dog MDCK cells infected with Influenza A virus H3N2 assessed as reduction in cell viability by visual analysis to EC90 for antiviral activity against Influenza A virus H3N2 infected in dog MDCK cells assessed as reduction in viral yield by visual analysis. In kind it is toxicity, cell-based.
Series [9] relates to Severe fever with thrombocytopenia syndrome virus. Put plainly: Antiviral activity against Severe fever with thrombocytopenia syndrome virus infected in African green monkey Vero E6 cells assessed as reduction in viral yield measured for 3 days. It is filed as functional. The following applies: Vero C1008, 72 h, time 3 day.
The nature of series [10]: Selectivity index, ratio of CC50 for cytotoxicity against African green monkey Vero 76 cells infected with La Crosse virus assessed as reduction in cell viability by visual analysis to EC50 for antiviral activity against La Crosse virus infected in African green monkey Vero 76 cells assessed as reduction in viral replication by visual analysis. As to conditions: read-out: Ratio CC50/EC50. It is filed as toxicity, cell-based.

Series [11] in a line: Cytotoxicity against African green monkey Vero E6 cells infected with Maporal virus assessed as reduction in cell viability. In kind it is toxicity, cell-based, Vero C1008. The following applies: chlorocebus sabaeus.
Series [12] in a line: Selectivity index, ratio of CC50 for cytotoxicity against African green monkey Vero cells infected with Pichinde virus assessed as reduction in cell viability by visual analysis to EC50 for antiviral activity against Pichinde virus infected in African green monkey Vero cells assessed as reduction in viral replication by visual analysis. In kind it is toxicity, cell-based. The following applies: read-out: Ratio CC50/EC50.

In series [13] the test system is Influenza A virus. Put plainly: Antiviral activity against Influenza A virus H3N2 infected in dog MDCK cells assessed as reduction in virus yield measured after 3 days by visual analysis. In kind it is functional. As to conditions: 72 h, time 3 day.
A short description of series [14]: Cytotoxicity against African green monkey Vero E6 cells infected with Lymphocytic choriomeningitis virus assessed as reduction in cell viability. In kind it is toxicity, cell-based, Vero C1008. The following applies: chlorocebus sabaeus.
Series [15] in a line: Selectivity index, ratio of CC50 for cytotoxicity against African green monkey Vero cells infected with JUNV assessed as reduction in cell viability by neutral red dye based analysis to EC50 for antiviral activity against JUNV infected in African green monkey Vero cells assessed as reduction in viral replication by neutral red dye based analysis. In kind it is toxicity. The following applies: read-out: Ratio CC50/EC50.

The nature of series [16]: Toxicity in BALB/c mouse infected with influenza A/Ca/04/09 (H1N1) assessed as mortality at 300 mg/kg, ip measured every day for 6 days. As to conditions: in vivo, time 6 day, read-out: Activity. It is filed as organism-based.
The nature of series [17]: Selectivity index, ratio of CC50 for cytotoxicity against African green monkey Vero cells infected with Tacaribe virus assessed as reduction in cell viability by visual analysis to EC50 for antiviral activity against Tacaribe virus infected in African green monkey Vero cells assessed as reduction in viral replication by visual analysis. It is filed as toxicity, cell-based. The following applies: read-out: Ratio CC50/EC50.

Series [18] in a line: Cytotoxicity against African green monkey Vero cells infected with Tacaribe virus assessed as reduction in cell viability by visual analysis. As to conditions: chlorocebus sabaeus. In kind it is toxicity, cell-based.
Series [19] in a line: Selectivity index, ratio of CC50 for cytotoxicity against dog MDCK cells infected with Influenza B virus assessed as reduction in cell viability by visual analysis to EC50 for antiviral activity against Influenza B virus infected in dog MDCK cells assessed as inhibition of viral replication by visual analysis. It is filed as toxicity, cell-based. The following applies: read-out: Ratio CC50/EC50.

A short description of series [20]: Cytotoxicity against African green monkey Vero cells infected with Tacaribe virus assessed as reduction in cell viability by neutral red dye based analysis. The following applies: chlorocebus sabaeus. It is filed as toxicity.
The subject of series [21] is Influenza A virus. The series can be described thus: Antiviral activity against Influenza A virus H1N1 infected in dog MDCK cells assessed as inhibition of viral replication measured after 15 to 30 mins by visual analysis. In kind it is functional, organism-based.
The nature of series [22]: Toxicity in BALB/c mouse infected with influenza A/Ca/04/09 (H1N1) assessed as mortality at 30 mg/kg, ip measured every day for 6 days. In kind it is organism-based. The following applies: in vivo, time 6 day, read-out: Activity.
A short description of series [23]: Toxicity in BALB/c mouse infected with A/Ca/04/09 (H1N1) assessed as animal mean day of death at 10 mg/kg, ip administered twice a day for 5 days (reference value: 9.3 +/-1.1 day ). It is filed as organism-based. As to conditions: in vivo, 120 h, time 5 day.
The test system of a further series is Junin virus. The series can be described thus: Antiviral activity against Junin virus infected in African green monkey Vero E6 cells assessed as inhibition of viral replication by visual analysis. In kind it is functional, organism-based. The following applies: Mammarenavirus juninense, Vero C1008.
In a further series the test system is Rift Valley fever virus. The series can be described thus: Antiviral activity against Rift Valley fever virus infected in African green monkey Vero 76 cells assessed as reduction in viral yield measured for 3 days. In kind it is functional. As to conditions: Vero 76, 72 h, time 3 day.
The nature of series [24]: Selectivity index, ratio of CC50 for cytotoxicity against dog MDCK cells infected with Influenza A virus H3N2 assessed as reduction in cell viability by neutral red dye based analysis to EC50 for antiviral activity against Influenza A virus H3N2 infected in dog MDCK cells assessed as inhibition of viral replication by neutral red dye based analysis. In kind it is toxicity. The following applies: read-out: Ratio CC50/EC50.

A short description of series [25]: Selectivity index, ratio of CC50 for cytotoxicity against African green monkey Vero 76 cells infected with MERS-CoV assessed as reduction in cell viability by visual analysis to EC50 for antiviral activity against MERS-CoV infected in African green monkey Vero 76 cells assessed as reduction in virus-induced cytopathic effect by visual analysis. It is filed as toxicity, cell-based. The following applies: read-out: Ratio CC50/EC50.

For another series, the system named is Influenza B virus. Put plainly: Antiviral activity against Influenza B virus infected in dog MDCK cells assessed as inhibition of viral replication measured after 15 to 30 mins by neutral red dye based analysis. It is filed as functional, organism-based.
The nature of series [26]: Selectivity index, ratio of CC50 for cytotoxicity against African green monkey Vero cells infected with Tacaribe virus assessed as reduction in cell viability by neutral red dye based analysis to EC50 for antiviral activity against Tacaribe virus infected in African green monkey Vero cells assessed as reduction in viral replication by neutral red dye based analysis. In kind it is toxicity. The following applies: read-out: Ratio CC50/EC50.

Series [27] can be described thus: Selectivity index, ratio of CC50 for cytotoxicity against African green monkey Vero cells infected with Pichinde virus assessed as reduction in cell viability by neutral red dye based analysis to EC50 for antiviral activity against Pichinde virus infected in African green monkey Vero cells assessed as reduction in viral replication by neutral red dye based analysis. It is filed as toxicity. The following applies: read-out: Ratio CC50/EC50.

The next series has as its system Pichinde virus. The series can be described thus: Antiviral activity against Pichinde virus infected in African green monkey Vero cells assessed as inhibition of viral replication by neutral red dye based analysis. In kind it is functional, organism-based.

The term EC50 denotes the concentration that produces a half-maximal response. The term CC50 denotes the concentration at which the toxic effect on the cells reaches its halfway point. The EC90 is the concentration at which the effect reaches the 90% level.

As to `Nc1ncnc2c([C@@H]3N[C@H](CO)[C@@H](O)[C@H]3O)c[nH]c12` [GALIDESIVIR], the results for the EC50 (in the series with Sudan ebolavirus; in series [1]; with Influenza A virus [2]) were 3 µM, 36 µM and 1 µM, respectively. For the same molecule, the CC50 in [3], in [4] and in series [6] was above 100 µM in each case. Moreover, in series [5], the selectivity ratio is above 3.1.
Consider `Nc1ncnn2c([C@@H]3N[C@H](CO)[C@@H](O)[C@H]3O)ccc12`, for which the Activity result in series [7] is on record as “Non-Toxic”. In addition, the selectivity ratio in series [8] is 64; in series [10], above 240; in series [12] it was 42; in series [15], 34; in series [17], 32; in series [19] it was 38. Also, the selectivity ratio in series [24] came out at 44; in [25], 31; in series [26] it was 20; in [27] it was 28. Moreover, the values for the EC90 (in series [9]; in the series on Influenza A virus [13]; in the series on Rift Valley fever virus) were 0.22 µM, 0.25 µM and 0.097 µM, respectively. Besides, the CC50 amounted to 13 µM in series [11], 12 µM in [14], 12 µM in series [18] and 6.6 µM in [20]. Also, the mortality at 144 h in [16] is 100%; in [22], 15%. Besides, the EC50 in the series on Influenza A virus [21] is 0.32 µM; with Junin virus, 0.54 µM; in the series on Influenza B virus, 0.26 µM; in the series with Pichinde virus, 0.3 µM. In [23], the Time was found to be 12 days.

For the origin of these results see ChEMBL document CHEMBL5257097, “An Isomer of Galidesivir That Potently Inhibits Influenza Viruses and Members of the Bunyavirales Order” (ACS Med Chem Lett, 2023).
